Two compounds from paper PMC10059712, “Structure Elucidation of Two Intriguing Neo-Debromoaplysiatoxin Derivatives from Marine Cyanobacterium Lyngbya sp. Showing Strong Inhibition of Kv1.5 Potassium Channel and Differential Cytotoxicity” (Molecules, 2023) can be followed below.

This experiment deals with T1, Kv1.5 K+ channel (Homo sapiens, UniProt P22460).
T1 construct: gene KCNA5; human Kv1.5 stably expressed in LTK cells (LTK-Kv1.5)
Description: patch clamp of Kv1.[…] currents in LTK-Kv1.[…] cells. Type of experiment: cell-based. For orientation: Patch clamp records ionic current or voltage across a cell membrane.

SMILES strings stand for the structures.

T1 sequence (P22460 whole entry): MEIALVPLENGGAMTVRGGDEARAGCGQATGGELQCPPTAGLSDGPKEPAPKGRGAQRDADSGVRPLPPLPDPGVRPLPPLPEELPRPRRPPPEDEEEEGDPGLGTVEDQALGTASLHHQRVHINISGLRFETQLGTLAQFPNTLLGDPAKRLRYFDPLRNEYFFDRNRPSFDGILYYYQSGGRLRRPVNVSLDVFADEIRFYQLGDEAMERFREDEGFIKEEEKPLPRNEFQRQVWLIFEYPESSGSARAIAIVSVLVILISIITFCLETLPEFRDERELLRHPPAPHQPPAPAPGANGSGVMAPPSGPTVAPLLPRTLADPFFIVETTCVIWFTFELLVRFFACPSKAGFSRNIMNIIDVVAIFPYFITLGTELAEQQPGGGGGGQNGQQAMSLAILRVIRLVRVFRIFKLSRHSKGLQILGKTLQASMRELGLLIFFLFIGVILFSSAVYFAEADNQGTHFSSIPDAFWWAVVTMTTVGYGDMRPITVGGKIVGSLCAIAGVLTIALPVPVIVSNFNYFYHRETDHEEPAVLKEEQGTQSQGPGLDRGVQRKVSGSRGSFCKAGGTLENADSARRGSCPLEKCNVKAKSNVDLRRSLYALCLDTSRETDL

In the case of `CO[C@@H](CC[C@H](C)[C@H]1O[C@]2(O)[C@H]3[C@@H](OC(=O)C[C@]3(O)[C@H](C)CC2(C)C)[C@@H]1C)c1cccc(O)c1` [compound 1, neo-debromoaplysiatoxin I], inhibition was half-maximal at 2590 ± 370 nM (IC50).
For `CO[C@@H](CC[C@H](C)[C@H]1O[C@]23C[C@H](OC(=O)C[C@H]([C@@H](C)O)OC(=O)CC(=O)C(C)(CC2(C)C)OO3)[C@@H]1C)c1cccc(O)c1` [compound 2, neo-debromoaplysiatoxin J], it took 1640 ± 150 nM to reach half-maximal inhibition (IC50).
